Assay results from EP4015509A1, “ORGANOMETALLIC COMPOUNDS AND THEIR USE AS MULTIMODAL CONTRASTING MEDIA FOR IMAGING DIAGNOSIS” (Justesa Imagen S.A.U, priority 2020, dated 2022).
Values after ≈ are worked out from the molar mass of the structure shown. Read-outs that look alike come from different tables or passages of the source.

Legend:
[1] = Osmolality test with freezing point equipment; assay type: physicochemical; settings: solutions at a concentration of 0.1 M
V79 fibroblast cultures = experiment: IC50 in vitro by cell viability measurement; assay type: cell-based
From the text: IC50 values were obtained by measuring cell viability in V79 fibroblast cultures as an alternative to animal experimentation. The values determined are summarized in the following table: Table 2: IC50 determination

[2] = target: T1, Bovine Serum Albumin (BSA) (Bos taurus, UniProt P02769); settings: 5 h, 0.25 mM, pH 7.4
T1 sequence (P02769 25-607): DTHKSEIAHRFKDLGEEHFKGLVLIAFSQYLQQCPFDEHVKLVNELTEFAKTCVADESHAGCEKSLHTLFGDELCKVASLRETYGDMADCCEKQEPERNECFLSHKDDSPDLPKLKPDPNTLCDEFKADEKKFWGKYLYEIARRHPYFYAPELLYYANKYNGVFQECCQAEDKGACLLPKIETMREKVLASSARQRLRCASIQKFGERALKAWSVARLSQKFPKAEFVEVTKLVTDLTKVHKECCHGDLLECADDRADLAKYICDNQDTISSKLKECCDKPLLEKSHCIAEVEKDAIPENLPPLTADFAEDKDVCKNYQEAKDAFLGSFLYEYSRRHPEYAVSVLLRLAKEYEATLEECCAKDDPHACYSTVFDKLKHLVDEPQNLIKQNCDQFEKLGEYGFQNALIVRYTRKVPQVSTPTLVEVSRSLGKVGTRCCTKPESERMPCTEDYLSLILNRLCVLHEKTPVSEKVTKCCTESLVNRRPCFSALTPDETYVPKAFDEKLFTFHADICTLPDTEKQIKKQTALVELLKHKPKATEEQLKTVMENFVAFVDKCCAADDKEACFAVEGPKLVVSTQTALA
Procedure: (§1) The albumin affinity test was carried out by in-vitro studies using Thermo Scientific™ "Single-Use RED Plate with 8K MWCO Inserts" 96-well plate, Bovine Serum Albumin (BSA) and HEPES. The technique of the devices is based on the process of equilibrium dialysis. The tests were carried out in a HEPES buffer with a pH of 7.4. In a typical test, following the manufacturer's measurement procedure, 400 µL of a solution containing the compound to be studied and BSA in concentrations of 0.25 mM and 0.6 mM respectively, in HEPES buffer, are added to the sample well. Additionally, 600 µL of HEPES buffer is added in the buffer well. After shaking the system for five hours at 300 rpm at a constant temperature of 37 °C, the concentration of the compound in each well is analysed. This analysis was performed using an Agilent ICP-MS (7900 Series) and with these concentration data the percentage of affinity of the studied compounds was determined.

mice [3] = experiment: MRI imaging in a 7T animal magnetic resonance equipment; assay type: in vivo
Procedure: The test was carried out in a 7T animal magnetic resonance equipment by administering the contrast medium containing the compound (8) at a dose of 0.1 mmol/Kg to mice.

mice [4] = experiment: PET/CT imaging in an animal PET/CT scanner; assay type: in vivo; settings: 130 µCi solution, gallium 68-labelled compound, Figure 7
[5] = target: T1, Bovine Serum Albumin (BSA); experiment: Albumin affinity test by equilibrium dialysis (RED plate), ICP-MS analysis; settings: compound 0.25 mM, BSA 0.6 mM, HEPES buffer pH 7.4, five hours, 37 °C
Procedure: as §1

| Compound | Osmolality (mOs/Kg) [1] | IC50 (V79 fibroblast cultures) | other results |
| --- | --- | --- | --- |
| CC(=O)Nc1c(I)cc(I)c(C(=O)O)c1I [Acetrizoic acid, reference compound] | 258.47 mOs/Kg | – | IC50 (V79 fibroblast cultures; read-out: IC50): 4.04 mg/mL (≈ 7.25 mM); Albumin affinity (%) [2]: 39.16% |
| Gadolinium {10-{2-[2-(3-acetylamino-2,4,6-triiodophenylamino) aminoethyl]-2-oxoethyl}-1,4,7,10-tetraaza-1-cyclodecyl}-1,4,7-triacetate [Compound (8)] | 117.58 mOs/Kg | >75 mg/mL | visualisation of the liver in MRI (mice [3]; additional study, MRI signal, figures 5 and 6): visualisation of the liver is possible; elimination route of the contrast medium (MRI) (mice [3]; mice, dose of 0.1 mmol/Kg, 7T MRI, figures 3 and 4): elimination via the kidneys |
| Gallium {10-{2-[2-(3-acetylamino-2,4,6-triiodophenylamino) aminoethyl]-2-oxoethyl}-1,4,7,10-tetraaza-1-cyclodecyl}-1,4,7-triacetate [Compound (7)] | 123.43 mOs/Kg | 8.64 mg/mL | organs differentiated in PET/CT images (mice [4]): heart, liver, kidneys and bladder are differentiated |
| Europium {10-{2-[2-(3-acetylamino-2,4,6-triiodophenylamino) aminoethyl]-2-oxoethyl}-1,4,7,10-tetraaza-1-cyclodecyl}-1,4,7-trioacetate [Compound (9)] | 125.12 mOs/Kg | >75 mg/mL | – |
| Gallium {10-{2-{2-[2-(3-Carboxy-2,4,6-triiodophenylamino)-2-oxoethylamino] aminoethyl}-2-oxoethyl}-1,4,7,10-tetraaza-1-cyclodododecyl}-1,4,7-triacetate [Compound (14)] | 150.42 mOs/Kg | 10.12 mg/mL | – |
| O=C([O-])CN1CCN(CC(=O)[O-])CCN([C@H](CO)[C@H](O)CO)CCN(CC(=O)[O-])CC1.[Gd+3] (racemic) [Gadobutrol, reference compound] | 93.33 mOs/Kg | >75 mg/mL | Albumin affinity (%) [5]: Not detectable |
| Gadolinium {10-{2-{2-[2-(3-Carboxy-2,4,6-triiodophenylamino)-2-oxoethylamino] aminoethyl}-2-oxoethyl}-1,4,7,10-tetraaza-1-cyclodododecyl}-1,4,7-triacetate [Compound (15)] | 155.38 mOs/Kg | >75 mg/mL | – |
| Europium {10-{2-{2-[2-(3-Carboxy-2,4,6-triiodophenylamino)-2-oxoethylamino] aminoethyl}-2-oxoethyl}-1,4,7,10-tetraaza-1-cyclodododecyl}-1,4,7-triacetate [Compound (16)] | 148.12 mOs/Kg | >75 mg/mL | – |
